Measured values from patent publication US11096926B2, “(3AR)-1,3A,8-trimethyl-1,2,3,3A,8,8A-hexahydropyrrolo[2,3-b]indol-5-yl phenylcarbamate and methods of treating or preventing neurodegeneration” (priority 2011, dated 2021).
Where two headings read alike, the source gives them in different places.

How the values were obtained:
[1] = Plasma pharmacokinetics of phenserine in men and women; conditions: 15 mg dose on day 35 of study
Description: PT: phenserine; N^8: N^8-desamine phenserine; N^1: N^1-desmethyl phenserine; N^1,N^8: N^1,N^8-desmethyl phenserine.

[2] = Binding to brain proteins, human brain homogenate; type: in vitro ADME
Protocol: (§1) The binding of Compound (t) and metabolites to brain proteins was determined to be ˜96% (rat and human brain homogenate).

APP [3] = type: in vivo, mouse; conditions: APP23 transgenic AD mice; 25 mg daily for 14 days; mRNA levels not lowered
Protocol: APP23 transgenic AD mice were treated with 25 mg of Compound (1) daily for 14 days.

alpha-Syn = conditions: dopaminergic SH-SY5Y cells; quantitative Western blotting, standardized for β-actin; read-out: efficacy on alpha-Syn expression (IC50); cited from earlier work
AChE = molecular target: T1, AChE (Mus musculus, UniProt P21836); assay: Brain AChE levels in Ts65Dn mice; type: in vivo; conditions: 50 mg/kg
T1 construct: from tissue; host or cells: brain of Ts65Dn mice
T1 sequence (P21836 32-614): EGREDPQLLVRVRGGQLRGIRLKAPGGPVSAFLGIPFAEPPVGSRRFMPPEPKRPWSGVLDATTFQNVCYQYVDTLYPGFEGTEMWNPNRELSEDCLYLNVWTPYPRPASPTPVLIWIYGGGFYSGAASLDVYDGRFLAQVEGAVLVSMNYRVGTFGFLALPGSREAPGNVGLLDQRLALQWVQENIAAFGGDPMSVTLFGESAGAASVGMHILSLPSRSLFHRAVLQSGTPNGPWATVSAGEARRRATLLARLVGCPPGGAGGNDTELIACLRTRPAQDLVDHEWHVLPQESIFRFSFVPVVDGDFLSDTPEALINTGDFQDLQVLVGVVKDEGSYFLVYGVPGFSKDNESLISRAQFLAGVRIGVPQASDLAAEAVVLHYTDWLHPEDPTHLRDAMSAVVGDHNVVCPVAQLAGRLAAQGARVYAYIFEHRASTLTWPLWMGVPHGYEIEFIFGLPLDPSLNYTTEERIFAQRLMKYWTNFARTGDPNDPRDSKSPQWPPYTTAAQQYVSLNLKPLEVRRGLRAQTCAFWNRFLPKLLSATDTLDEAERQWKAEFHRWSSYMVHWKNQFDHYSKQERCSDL
Description: (§2) FIG. 17 is a series of graphs illustrating effects of Compound (1) in Ts65Dn mouse model of Down Syndrome.

Tau = Tau levels before and after 10 days treatment in MCI patients; type: in vivo, human; conditions: given for 10 days
Protocol: FIG. 24 is a graph illustrating the comparison of Tau before and after treatment with Compound (1) in healthy volunteers.
(§3) For a proof of mechanism study of Compound (1), patients suffering from mild cognitive impairment (MCI) were treated with Compound (1) for 10 days. The patients were dosed with 4×60 mg Compound (1) for 10 days orally, using Posiphen® powder filled into gelatin capsules. Cerebrospinal fluid (CSF) and plasma were drawn from the subjects over a 12 hour period on day 0 and day 11.

APP, Aβ40 and Aβ42 = APP, Aβ40 and Aβ42 levels in mouse brain (Western Blot, ELISA); type: in vivo; conditions: once daily x 21 day
Protocol: FIG. 15 is a series of graphs illustrating the in vivo reduction of APP, Aβ40 and Aβ42 levels in mouse brain by Compound (1). Drug was administered once daily×21 day: APP—Western Blot, Aβ—Specific ELISA for 1-40 and 1-42 forms.

APP [4] = assay: 35S incorporation into newly synthesized APP in SH-SY-5Y cells; type: cell-based; conditions: SH-SY-5Y human neuroblastoma cells; 10 min 35S incorporation; APP mRNA and total protein synthesis not altered
Protocol: FIG. 5A: 10 min ^35S incorporation into APP, in SH-SY-5Y human neuroblastoma cells. FIG. 5B: newly synthesized total protein. FIG. 5C: newly synthesized APP. FIG. 5D: APP mRNA.

NGF = assay: Brain NGF levels in Ts65Dn mice; type: in vivo, mouse
Description: as §2

[5] = Human pharmacokinetics in plasma and CSF (proof of mechanism study, MCI patients); type: in vivo; conditions: for half-life: human, po
Protocol: as §3
Pharmacokinetic analysis was performed for Compound W) and selected metabolites: N^1-norposiphen, N^8-norposiphen, and N^1,N^8-norposiphen. Pharmacodynamic analysis was performed for APP protein and other AD associated biomarkers in CSF and plasma: APP, Aβ1-40, Aβ1-42, N-APP, AChEI, BChEI, Tau/p-Tau, NGF, BDNF, and inflammatory factors.
(d) in humans, plasma and CSF were analyzed 0 to 12 hours, after administration of the drug.
The levels of Compound (1) and selected metabolites in human plasma (FIG. 22A) and human CSF (FIG. 22B) were determined. […] This was corroborated by measuring half-life of Posiphen® in brains of mice.

[6] = Binding to brain proteins, rat brain homogenate; type: in vitro ADME
Protocol: as §1

APP [7] = type: in vivo, mouse; conditions: trisomy Down Syndrome (Ts65Dn) mice; to control non-DS brain levels

Structure (SMILES): CN1CC[C@@]2(C)c3cc(OC(=O)Nc4ccccc4)ccc3N(C)[C@@H]12 [phenserine]
- half life (plasma) [1]: less than one

Structure (SMILES): CN1CC[C@]2(C)c3cc(OC(=O)Nc4ccccc4)ccc3N(C)C12 (stereo partly drawn) [Compound (1), (3aR)-1,3a,8-trimethyl-1,2,3,3a,8,8a-hexahydropyrrolo[2,3-b]indol-5-yl phenylcarbamate]
- binding to brain proteins [2]: ~96%
- APP levels in the brain (APP [3]): lowered APP levels
- IC50 (alpha-Syn): < 5 µM
- lowering of brain AChE levels (AChE): 50%
- Tau levels (Tau): lowers their Tau levels back to the levels found in healthy volunteers
- APP, Aβ40 and Aβ42 levels in mouse brain (APP, Aβ40 and Aβ42): reduction
- newly synthesized APP (APP [4]): reduces newly synthesized APP
- NGF levels in brain (NGF): elevated
- half-life ([5]; CSF, read-out: half-life in human CSF (converted)): ~12 h
- half-life ([5]; plasma, read-out: half-life in human plasma (converted)): ~5 h
- half-life in human plasma ([5]; oral, listed as Posiphen): 5 h
- binding to brain proteins [6]: ~96%
- lowering of APP levels in brain (APP [7]): 30%
